System: 242566-281-R-J2-PDC complex spheroid viability
Test: Anticancer human tumor 242566-281-R-J2-PDC patient-derived pancreatic carcinoma cell line growth inhibition [RAS]
Details: for IC50: curve of first compound; for viability, T/C: stronger effect = lower value; active means viability on the fitted dose curve at most 10% of control; inactive means the rest
In short: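 Agents were tested in combination matrices in half-log decrements from a top concentration at or near clinical Cmax (10 microM if undetermined). Targets were multi-cell spheroids of tumour lines plus HUVEC and MSC stromal cells.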

[1] = second compound 0.0316 µM, first compound 0.00316 µM
[2] = second compound 0.0316 µM, first compound 0.01 µM
[3] = second compound 0.0316 µM, first compound 0.0316 µM
[4] = second compound 0.0316 µM, first compound 0.1 µM
[5] = second compound 0.1 µM, first compound 0.00316 µM
[6] = second compound 0.1 µM, first compound 0.01 µM
[7] = second compound 0.1 µM, first compound 0.0316 µM
[8] = second compound 0.1 µM, first compound 0.1 µM
[9] = second compound 0.316 µM, first compound 0.00316 µM
[10] = second compound 0.316 µM, first compound 0.01 µM
[11] = second compound 0.316 µM, first compound 0.0316 µM
[12] = second compound 0.316 µM, first compound 0.1 µM
[13] = second compound 1 µM, first compound 0.00316 µM
[14] = second compound 1 µM, first compound 0.01 µM
[15] = second compound 1 µM, first compound 0.0316 µM
[16] = second compound 1 µM, first compound 0.1 µM
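Further: spheroids exposed to compound for 7 days before readout.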
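Wherever viability, T/C is given: 100% = DMSO vehicle control wells.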

CC(C)n1nc(-c2ccc3oc(N)nc3c2)c2c(N)ncnc21 + C=CC(=O)N1CCN(c2nc(OCC3CCCN3C)nc3c(F)c(-c4nc(N)cc(C)c4C(F)(F)F)c(Cl)cc23)C(C)C1
inactive: viability, T/C (second compound 0.00316 µM, first compound 0.000316 µM) 93.1% | viability, T/C (second compound 0.00316 µM, first compound 0.001 µM) 154% | viability, T/C (second compound 0.00316 µM, first compound 0.00316 µM) 91.4% | viability, T/C (second compound 0.00316 µM, first compound 0.01 µM) 78.9% | viability, T/C (second compound 0.00316 µM, first compound 0.0316 µM) 58.5% | viability, T/C (second compound 0.00316 µM, first compound 0.1 µM) 53.8% | viability, T/C (second compound 0.01 µM, first compound 0.000316 µM) 111% | viability, T/C (second compound 0.01 µM, first compound 0.001 µM) 150% | viability, T/C (second compound 0.01 µM, first compound 0.00316 µM) 94.9% | viability, T/C (second compound 0.01 µM, first compound 0.01 µM) 72.7% | viability, T/C (second compound 0.01 µM, first compound 0.0316 µM) 55.5% | viability, T/C (second compound 0.01 µM, first compound 0.1 µM) 53.6% | viability, T/C (second compound 0.0316 µM, first compound 0.000316 µM) 101% | viability, T/C (second compound 0.0316 µM, first compound 0.001 µM) 138% | viability, T/C [1] 83.4% | viability, T/C [2] 79.2% | viability, T/C [3] 67.1% | viability, T/C [4] 54.6% | viability, T/C (second compound 0.1 µM, first compound 0.000316 µM) 98.5% | viability, T/C (second compound 0.1 µM, first compound 0.001 µM) 111% | viability, T/C [5] 89.9% | viability, T/C [6] 84.3% | viability, T/C [7] 62% | viability, T/C [8] 55.7% | viability, T/C (second compound 0.316 µM, first compound 0.000316 µM) 109% | viability, T/C (second compound 0.316 µM, first compound 0.001 µM) 107% | viability, T/C [9] 107% | viability, T/C [10] 81.5% | viability, T/C [11] 69.5% | viability, T/C [12] 55.3% | viability, T/C (second compound 1 µM, first compound 0.000316 µM) 109% | viability, T/C (second compound 1 µM, first compound 0.001 µM) 140% | viability, T/C [13] 86.4% | viability, T/C [14] 88.3% | viability, T/C [15] 75.2% | viability, T/C [16] 55.7%
> 100 nM: IC50 (second compound 0.00316 µM) | IC50 (second compound 0.01 µM) | IC50 (second compound 0.0316 µM) | IC50 (second compound 0.1 µM) | IC50 (second compound 0.316 µM) | IC50 (second compound 1 µM)

CCN1CCN(Cc2ccc(Nc3ncc(F)c(-c4cc(F)c5nc(C)n(C(C)C)c5c4)n3)nc2)CC1 + C#Cc1c(F)ccc2cc(O)cc(-c3ncc4c(N5CC6CCC(C5)N6)nc(OCC56CCCN5CC(F)C6)nc4c3F)c12
inactive: viability, T/C [1] 110% | viability, T/C [2] 108% | viability, T/C [3] 85% | viability, T/C [4] 61.7% | viability, T/C (second compound 0.0316 µM, first compound 0.316 µM) 84.9% | viability, T/C (second compound 0.0316 µM, first compound 1 µM) 99% | viability, T/C [5] 95% | viability, T/C [6] 81.1% | viability, T/C [7] 77.5% | viability, T/C [8] 56.5% | viability, T/C (second compound 0.1 µM, first compound 0.316 µM) 76% | viability, T/C (second compound 0.1 µM, first compound 1 µM) 85.2% | viability, T/C [9] 79.9% | viability, T/C [10] 72% | viability, T/C [11] 46.7% | viability, T/C [12] 51.9% | viability, T/C (second compound 0.316 µM, first compound 0.316 µM) 72% | viability, T/C (second compound 0.316 µM, first compound 1 µM) 87.3% | viability, T/C [13] 64.5% | viability, T/C [14] 62.1% | viability, T/C [15] 50.5% | viability, T/C [16] 43.5% | viability, T/C (second compound 1 µM, first compound 0.316 µM) 63.3% | viability, T/C (second compound 1 µM, first compound 1 µM) 77.1% | viability, T/C (second compound 3.16 µM, first compound 0.00316 µM) 56.6% | viability, T/C (second compound 3.16 µM, first compound 0.01 µM) 47.2% | viability, T/C (second compound 3.16 µM, first compound 0.0316 µM) 31.6% | viability, T/C (second compound 3.16 µM, first compound 0.1 µM) 37.3% | viability, T/C (second compound 3.16 µM, first compound 0.316 µM) 58.5% | viability, T/C (second compound 3.16 µM, first compound 1 µM) 72.4% | viability, T/C (second compound 10 µM, first compound 0.00316 µM) 54.3% | viability, T/C (second compound 10 µM, first compound 0.01 µM) 48.2% | viability, T/C (second compound 10 µM, first compound 0.0316 µM) 40.1% | viability, T/C (second compound 10 µM, first compound 0.1 µM) 37.6% | viability, T/C (second compound 10 µM, first compound 0.316 µM) 51.7% | viability, T/C (second compound 10 µM, first compound 1 µM) 63.1%
3.16 nM: IC50 (second compound 1 µM)
> 1000 nM: IC50 (second compound 0.0316 µM) | IC50 (second compound 0.1 µM) | IC50 (second compound 0.316 µM)
< 3.16 nM: IC50 (second compound 3.16 µM) | IC50 (second compound 10 µM)

Source: PubChem BioAssay AID2060910 (Molecular Pharmacology Branch, DTP, NCI, 2025)
